Drawing on PubChem BioAssay (NCI), this text covers TGI and GI50 for 20 compounds.

Among the test systems are SK-MEL-5 melanoma; UO-31 renal; HCC-2998 colon; OVCAR-4 ovarian; A498 renal; MALME-3M melanoma; RXF 393 renal; HCT-116 colon; MOLT-4 leukemia.
Test in all cases: growth of human tumour cells (NCI), 48 h

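Five compound concentrations were applied to cells in 96-well plates for 48 hours; endpoints were derived by simple linear interpolation of the resulting dose-response curve. GI50 marks 50% less growth. TGI marks complete inhibition of growth.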

For the compound `O=C(O)c1[nH]c(C(=O)O)c(CC(F)(F)C(F)(F)C(F)(F)F)c1CC(F)(F)C(F)(F)C(F)(F)F`, the TGI with SK-MEL-5 melanoma, with UO-31 renal, with HCC-2998 colon, in the assay with OVCAR-4 ovarian, in the assay with A498 renal and in the assay with MALME-3M melanoma was above 100 µM throughout. Moreover, the TGI with RXF 393 renal and in the assay on HCT-116 colon was above 100 µM throughout.
Consider `ClCCn1cnc2c(SCc3ccccc3)ncnc21`, for which the GI50 was 0.79 µM in the assay on SK-MEL-5 melanoma; 0.823 µM in the assay with MOLT-4 leukemia; 2.13 µM in the assay with UO-31 renal; 19.8 µM with OVCAR-4 ovarian; 3.23 µM with A498 renal; 25.7 µM with MALME-3M melanoma. The GI50 in the assay on RXF 393 renal was 11.4 µM; in the assay with HCT-116 colon, 0.381 µM. Moreover, the TGI in the assay on SK-MEL-5 melanoma is above 100 µM; in the assay on MOLT-4 leukemia it was above 100 µM; in the assay with UO-31 renal, 39.4 µM; in the assay with OVCAR-4 ovarian, above 100 µM; with A498 renal, 74.6 µM; in the assay with MALME-3M melanoma, above 100 µM. The TGI in the assay with RXF 393 renal is 63.5 µM; in the assay on HCT-116 colon it was 38.4 µM.
`COC(=O)C12C3C4C1C1C2C3C41I` (stereo not given): the TGI in the assay with SK-MEL-5 melanoma, with MOLT-4 leukemia, with UO-31 renal, in the assay with HCC-2998 colon, in the assay with OVCAR-4 ovarian and with A498 renal was above 100 µM each time. The TGI in the assay on MALME-3M melanoma and in the assay on RXF 393 renal was above 100 µM each time.
As to `CC/C=C\C[C@H](O)C/C=C1/C(=O)C=C[C@@H]1C/C=C\CCCC(N)=O`, the GI50 in the assay on SK-MEL-5 melanoma is 1.56 µM; in the assay on UO-31 renal, 1.63 µM; in the assay with HCC-2998 colon, 1.98 µM; with OVCAR-4 ovarian it was 3.45 µM; with A498 renal it was 2.9 µM; with MALME-3M melanoma it was 2.06 µM. In addition, the values for the GI50 with RXF 393 renal and with HCT-116 colon were 1.94 µM and 1.02 µM, respectively. The TGI came to 2.97 µM in the assay on SK-MEL-5 melanoma; 3.42 µM with UO-31 renal; 3.7 µM in the assay on HCC-2998 colon; 16.8 µM in the assay with OVCAR-4 ovarian; 7.07 µM in the assay with A498 renal; 5.23 µM with MALME-3M melanoma. Further, the TGI with RXF 393 renal came out at 3.69 µM; with HCT-116 colon, 2.47 µM.
In the case of `CCCCCCCCCCCC(=O)C1=C(O)C(O)CCC1=O` (stereo not given), the TGI in the assay with MOLT-4 leukemia was determined as 60.3 µM; with UO-31 renal, 64.9 µM; in the assay on HCC-2998 colon, 52.9 µM; in the assay on OVCAR-4 ovarian, 90.8 µM; with A498 renal, 43.2 µM; in the assay with MALME-3M melanoma it was 32 µM. For the same compound, the TGI in the assay on RXF 393 renal was above 100 µM; in the assay on HCT-116 colon, 38.5 µM.
On to `Cc1c2ncccc2c(C)c2c1[nH]c1ccccc12`, for which the TGI in the assay with MOLT-4 leukemia was found to be 6.5 µM; in the assay with HCC-2998 colon it was 25.7 µM; in the assay on OVCAR-4 ovarian it was 43.4 µM; with A498 renal, 25.2 µM; in the assay on MALME-3M melanoma, 30.6 µM; with RXF 393 renal it was 25.9 µM. In addition, the TGI in the assay with HCT-116 colon stood at 17.3 µM.
Turning to `COc1cccc2c1C1=CC(=O)CCC1C(C)(C)O2` (stereo not given), the TGI with SK-MEL-5 melanoma, in the assay on MOLT-4 leukemia, in the assay with UO-31 renal, with OVCAR-4 ovarian, in the assay with A498 renal and with MALME-3M melanoma was above 100 µM throughout. The TGI with RXF 393 renal and in the assay on HCT-116 colon was above 100 µM throughout.
Regarding `CN(C)CCNC(=O)c1cc([N+](=O)[O-])cc2ccc(-c3ccccc3)nc12`, the TGI with SK-MEL-5 melanoma worked out at 11.8 µM; in the assay with UO-31 renal, 11.2 µM; with HCC-2998 colon it was 20.3 µM; in the assay with OVCAR-4 ovarian, 13 µM; with A498 renal it was 14.4 µM; with MALME-3M melanoma it was 19.5 µM. The TGI with RXF 393 renal is 22.8 µM; in the assay with HCT-116 colon, 13.4 µM.
On to `COc1cc2ccc3c4cc(OC)c(OCc5ccccc5)cc4cnc3c2cc1OC`, for which the TGI in the assay on SK-MEL-5 melanoma, in the assay with MOLT-4 leukemia, in the assay with UO-31 renal, in the assay on HCC-2998 colon, with OVCAR-4 ovarian and in the assay with A498 renal was above 100 µM each time. This compound also gave a TGI with MALME-3M melanoma above 100 µM.
On to `COc1ccc2c(C3(O)CCNCC3)c[nH]c2c1`, for which the TGI with SK-MEL-5 melanoma, in the assay on MOLT-4 leukemia, in the assay with UO-31 renal, with HCC-2998 colon, with OVCAR-4 ovarian and with MALME-3M melanoma was above 100 µM each time. The same compound showed a TGI with RXF 393 renal above 100 µM.
Regarding `CCCCCCCCCCCCC(SCCNC(=O)CCNC(=O)C(O)C(C)(C)COP(=O)(O)OP(=O)(O)OCC1OC(n2cnc3c(N)ncnc32)C(O)C1OP(=O)(O)O)C(=O)NCC(N)=O` (stereo not given), the TGI with SK-MEL-5 melanoma, with UO-31 renal, in the assay on HCC-2998 colon, in the assay on OVCAR-4 ovarian, in the assay on A498 renal and with MALME-3M melanoma was above 100 µM throughout. Also, the TGI in the assay on RXF 393 renal and in the assay with HCT-116 colon was above 100 µM throughout.
Consider `Cn1nnnc1[N-]Cc1ccccc1.[Au+].c1ccc([PH+](c2ccccc2)c2ccccc2)cc1`, for which the GI50 in the assay on SK-MEL-5 melanoma is 1.6 µM; in the assay with MOLT-4 leukemia it was 1.67 µM; in the assay on UO-31 renal, 13 µM; in the assay on HCC-2998 colon it was 8.55 µM; in the assay on OVCAR-4 ovarian it was 1.99 µM; in the assay on MALME-3M melanoma it was 1.64 µM. The GI50 is 1.29 µM with RXF 393 renal and 3.88 µM in the assay with HCT-116 colon. Also, the TGI with SK-MEL-5 melanoma was found to be 3.6 µM; in the assay with MOLT-4 leukemia, 4.75 µM; in the assay with UO-31 renal, 25.7 µM; in the assay with HCC-2998 colon, 21.8 µM; in the assay on OVCAR-4 ovarian it was 5.42 µM; with MALME-3M melanoma, 3.39 µM. Besides, the figures for the TGI in the assay with RXF 393 renal and in the assay on HCT-116 colon were 2.68 µM and 13 µM, respectively.
For `Cn1cc(NC(=O)c2cc(NC(=O)CCCCCC(=O)Nc3cc(C(=O)Nc4cc(C(=O)NCCC(=N)N)n(C)c4)n(C)c3)cn2C)cc1C(=O)NCCC(=N)N`, the TGI in the assay with SK-MEL-5 melanoma, with UO-31 renal, with HCC-2998 colon, with OVCAR-4 ovarian, in the assay on A498 renal and in the assay on MALME-3M melanoma was above 100 µM throughout. In addition, the TGI in the assay on RXF 393 renal and with HCT-116 colon was above 100 µM in each case.
As for `c1c[nH]c(Cc2ncc(Cc3cnc[nH]3)[nH]2)n1`, the TGI in the assay on SK-MEL-5 melanoma is 59.1 µM; in the assay on MOLT-4 leukemia, above 100 µM; in the assay on HCC-2998 colon, above 100 µM; in the assay with OVCAR-4 ovarian, above 100 µM; in the assay with A498 renal, 86 µM; with MALME-3M melanoma, above 100 µM. The compound also yielded a TGI in the assay on HCT-116 colon above 100 µM.
`CC(C)(C)N=CN1CCC(C(c2ccccc2)c2ccccc2)CC1`: the TGI with SK-MEL-5 melanoma is above 100 µM; with OVCAR-4 ovarian, above 100 µM; in the assay on A498 renal, above 100 µM; in the assay with MALME-3M melanoma, 35.6 µM; in the assay with RXF 393 renal, 98.7 µM; in the assay with HCT-116 colon it was above 100 µM.
In the case of `COc1ccc(/C=[N+](\[O-])[C@H](COCc2ccccc2)c2ccccc2)cc1`, the TGI in the assay on MOLT-4 leukemia, in the assay with UO-31 renal, with HCC-2998 colon, in the assay with A498 renal, with MALME-3M melanoma and in the assay on RXF 393 renal was above 100 µM each time. Moreover, in the assay with HCT-116 colon, the TGI was above 100 µM.
Take `CCOC(=O)c1c2ccc(/C=C/C(=O)OC)ccc-2c(C(=O)OCC)c1N`: the TGI is above 100 µM in the assay on SK-MEL-5 melanoma; above 100 µM with MOLT-4 leukemia; above 100 µM in the assay with UO-31 renal; above 100 µM in the assay with HCC-2998 colon; above 100 µM in the assay with OVCAR-4 ovarian; 49.4 µM in the assay with A498 renal. Also, the TGI in the assay with MALME-3M melanoma and in the assay on RXF 393 renal was above 100 µM each time.
Regarding `COc1cccc2c(=O)c3c(sc12)c(NCCCN)nc1ccccc13`, the GI50 was 1.69 µM in the assay on SK-MEL-5 melanoma; 0.832 µM in the assay with UO-31 renal; 1.72 µM with HCC-2998 colon; 1.73 µM in the assay with OVCAR-4 ovarian; 1.68 µM with A498 renal; 1.58 µM with MALME-3M melanoma. Also, in the assay on RXF 393 renal, the GI50 is 1.53 µM. The TGI with SK-MEL-5 melanoma is 3.07 µM; in the assay on UO-31 renal, 2.18 µM; with HCC-2998 colon, 3.26 µM; in the assay on OVCAR-4 ovarian, 3.64 µM; in the assay on A498 renal, 3.15 µM; in the assay on MALME-3M melanoma, 2.99 µM. The TGI with RXF 393 renal amounted to 2.96 µM.
For the compound `CC(C)(C)C([O-])=C1C(=O)c2ccccc2C1=O.CC(C)(C)C([O-])=C1C(=O)c2ccccc2C1=O.CC[O-].CC[O-].[Ti+4]`, the GI50 is 42.2 µM in the assay with SK-MEL-5 melanoma; 22.4 µM with MOLT-4 leukemia; 19.1 µM in the assay with UO-31 renal; 40.3 µM in the assay with HCC-2998 colon; 58.7 µM in the assay on OVCAR-4 ovarian; 17.3 µM in the assay on MALME-3M melanoma. For the same compound, the GI50 was 10.8 µM in the assay on RXF 393 renal and 37.7 µM in the assay on HCT-116 colon. Besides, the TGI with SK-MEL-5 melanoma was 95.6 µM; in the assay with MOLT-4 leukemia it was 61.9 µM; in the assay on UO-31 renal it was 44.5 µM; in the assay on HCC-2998 colon, above 100 µM; with OVCAR-4 ovarian, above 100 µM; with MALME-3M melanoma, 38.5 µM. Besides, the TGI is 90.3 µM in the assay on RXF 393 renal and above 100 µM in the assay on HCT-116 colon.
On to `C=CCN(N=O)C(=O)N(CCC)CCCC(NC(C)=O)C(=O)NCc1ccccc1` (stereo not given), for which the TGI in the assay on SK-MEL-5 melanoma, with MOLT-4 leukemia, with UO-31 renal, with OVCAR-4 ovarian, with A498 renal and with MALME-3M melanoma was above 100 µM throughout. This compound had a TGI in the assay on RXF 393 renal above 100 µM.
